Reference: patent publication US20010055569A1, “Nasal drug delivery composition” (West Pharmaceutical Services Drug Delivery & Clinical …, priority 1998, published 2001)
In brackets after ≈: the same amount, converted by molar mass. Like-named read-outs stand apart in the source and are kept apart here.

Assay: Solubility of drugs in vegetable oils (castor oil, soybean oil)
Settings: for solubility: oil or lipid, thermodynamic from solid
Method: The solubility of flurbiprofen in different vegetable oils was measured by the addition of increasing quantities of the drug to an oil system and determination of the maximum amount that will dissolve by observation of the resultant solution and the onset of a cloudy nature or precipitation.

In the case of `CC(C(=O)O)c1ccc(-c2ccccc2)c(F)c1` (centres unmarked) [flurbiprofen], the solubility (castor oil BP) is reported as 150 mg/mL (≈ 614 mM) and the solubility (soybean oil BP) is reported as less than 50 mg/mL.

For `CN1CCc2cccc3c2[C@H]1Cc1ccc(O)c(O)c1-3` [Apomorphine], the “Solubility in soybean oil” value (room temperature, soybean oil) was less than 10 mg/g.

With `COc1ccc2c(c1)c(CC(=O)O)c(C)n2C(=O)c1ccc(Cl)cc1` [Indomethacin] the “Solubility in castor oil” value was >15 < 20 mg/g and the “Solubility in soybean oil” value was less than 5 mg/g.
